# Experimental data as given in patent publication US20080051454A1, “Compositions and methods for transient receptor potential vanilloid (TRPV) channel mediated treatments” (The Board of Trustees Operating Michigan State University, priority 2006, published 2008).
# Legend:
# renal tissues = assay: Capsaicin-induced CGRP release from renal tissues; set-up: species or system rat; conditions: capsazepine 10 mmol/l; all groups
# From the text: N¼5,_P<0.05 versus vehicle, capsazepine plus capsaicin and capsazepine; †P<0.001 versus capsaicin of control rats with a normal sodium diet (Con-NS) and capsaicin of control rats with a high sodium diet (Con-HS). Vehicle; capsaicin; capsazepine and capsaicin; capsazepine.
# To examine renal sensory nerve function, renal CGRP release after stimulation of the renal sensory nerves with capsaicin was examined.
# WT hearts [1] = assay: Preconditioning (PC) protection against I/R in Langendorff hearts with receptor antagonists, wild type; set-up: species or system mouse
# Procedure: Male TRPV1 gene knockout (TRPV1-/-) strain B6.129S[…][…]^tm1Jul and matching control wild type (WT) strain C57BL/6J mice were used (Jackson Laboratory, Bar Harbor, Me.). Mice were heparinized (500 U/kg i.p.) and anesthetized with pentobarbital sodium (50 mg/kg i.p.). […] The distal end of the catheter was connected to a […] Performance Analyzer via a pressure transducer. Coronary flow (CF) was continuously measured using an ultrasonic flow probe placed in the aortic perfusion line. Hearts were paced at 400 bpm except during ischemic PC and sustained global ischemia to avoid inducing excessive ventricular tachyarrhythmia during reperfusion, and pacing was reinitiated 2 minutes after reperfusion. Left ventricular developed pressure (LVDP, peak systolic minuses LVEDP) and LV peak positive […]) during isovolumic contraction were used as indices of LV systolic function; LVEDP and the peak negative […] used as indices of LV diastolic function. […] Non-preconditioned hearts were time-matched perfused with the same duration as that of preconditioned hearts. Group 1: Controls. As normal controls (nonischemic), WT and TRPV1-/- hearts were perfused for 130 minutes. For I/R controls, WT and TRPV1-/- hearts were first perfused with Krebs-Henseleit buffer for 55 min (time-matched perfusion of the equilibration period plus the PC period), and subsequently subjected to 30 minutes of no-flow normothermic global ischemia followed by 40-minutes of reperfusion. Group 2: PC. […] The hearts were subjected to 30 minutes of no-flow normothermic global ischemia followed by 40-minutes of reperfusion as that of I/R control groups. Group 3: PC plus capsazepine (CAPZ). […] Two additional concentrations of CAPZ, 10^-6M and 10^-8 M, were used in WT hearts. An additional drug control was added. After a 20-minute equilibration period, WT hearts were perfused with CAPZ (10^-7 M) for 10 minutes without PC, followed by perfusion with Krebs-Henseleit buffer for 25 minutes (time-matched perfusion of the PC period) and then subjected to I/R. Group 4: […] Two additional concentrations of CGRP8-37, 10^-5 M and 10^-7 M, were used in WT hearts. An additional drug control of CGRP8-37 was added as that of the CAPZ control group. Group 5: PC plus RP67580. To determine the role of endogenous SP during PC, hearts from WT and TRPV1-/-mice were perfused as that of CAPZ with RP67580 (10^-7 M), a selective neurokinin-1 (NK1) receptor antagonist. Two additional concentrations of RP67580, 10^-6 M and 10^-8 M, were used in WT hearts. An additional drug control of RP67580 was added as that of the CAPZ control group.
# WT and TRPV1−/− hearts = assay: SP and CGRP release from hearts subjected to PC (radioimmunoassay); set-up: species or system mouse; conditions: CAPZ 10^−6 M; in WT but not TRPV1−/− hearts
# Procedure: Additional WT and TRPV1−/−hearts were treated the same as that of the PC group except that CAPZ (10^−6 M) was added to the solution. In the normal control group, WT and TRPV1−/−hearts were treated the same as that of the PC group except no deprivation of oxygen and glucose. The samples were purified and analyzed by radioimmunoassay. The assay was performed as recommended by the supplier. Commercially available rat CGRP and SP radioimmunoassay kits (Peninsula Laboratories Inc.) were used for determination of SP and CGRP release which was normalized by the heart weight.
# WT hearts [2] = assay: Lactate dehydrogenase (LDH) release during I/R; set-up: species or system mouse
# Procedure: Lactate dehydrogenase (LDH) release: In addition to the measurement of cardiac function, cardiac injury was assessed by measuring LDH release. Perfusion effluent was collected during the first 10 minutes to 20 minutes of I/R and stored at […] until analyzed. Total LDH levels were determined with the use of a CytoTox 96 assay (Promega). The data were expressed as absorbance units released per milliliter per minute per gram of heart wet tissues (Turnbull et al., Am J Physiol Heart Circ Physiol 290: […]-9, 2006; herein incorporated by reference).
# Wistar rats fed HS diet = assay: Blood pressure after i.v. SR141716A or CAPZ in conscious rats fed HS diet (Example I); type: in vivo, rat; conditions: 3 mg/kg iv
# Procedure: Experiments were approved by the Institutional Animals Care and Use Committee. Experiments were performed using male Wistar rats (Charles River Laboratory, Wilmington, Mass.). Rats (6 weeks old) were housed in the animal facility for 1 week before the experiments. Rats were then randomly assigned to a normal-sodium (NS) diet (0.4% of Na+ by weight, Harlan Teklad) or HS (4% of Na+ by weight; Harlan Teklad) for 3 weeks. Rats drank water ad libitum throughout the experiment.
# Surgical Preparation and MAP measurements: The rats were anesthetized with ketamine and xylazine (80 and 4 mg/kg intraperitoneally, respectively) for implantation of vascular catheters or with urethane ([…] intraperitoneally) throughout protocol 2. […]
# Protocol 1: Rats fed a NS or HS diet were randomly assigned to 5 groups for intravenous injection of vehicle or MethA alone or in combination with SR141716A (a CB1 receptor antagonist), CAPZ (a VR1 receptor antagonist), or the combination of the 2 (n=5 to 8). Baseline MAP and its response to the aforementioned drugs were determined 3 hours after surgery when animals were fully awake and unrestrained as described previously. […]
structure (smiles),measurement,setting,value
"Oc1cc2c(cc1O)CN(C(=S)NCCc1ccc(Cl)cc1)CCC2 [CAPZ, N-[2-(4-Chlorophenyl)ethyl]-1,3,4,5-tetrahydro-7,8-dihydroxy-2H-2-benzazepine-2-carbothioamide]",effect on capsaicin-stimulated CGRP release,renal tissues,blocked
same,effect on cardiac function in WT hearts without I/R,WT hearts [1],no effect on cardiac function
same,"effect on PC-induced cardiac protection (LVEDP, LVDP, CF, +dP/dt, −dP/dt) in WT hearts","WT hearts [1]; CAPZ 10^−7 M, CGRP8-37 10^−6 M, RP67580 10^−7 M",abolished PC induced protection
same,CGRP release from hearts subjected to PC,WT and TRPV1−/− hearts,attenuated
same,SP release from hearts subjected to PC,WT and TRPV1−/− hearts,attenuated
same,effect on PC protection assessed by LDH levels after I/R in WT hearts,WT hearts [2],abolished
same,duration of transient elevation in blood pressure after injection,Wistar rats fed HS diet,≤ 7 min
